Experimental data taken from patent US20190274303A1, “USE OF A DIFLUORO-(2-HYDROXYPROPYL)PYRIDINE COMPOUND AS A FUNGICIDE FOR CONTROL OF PHYTOPATHOGENIC FUNGI OF BARLEY” (Dow AgroSciences LLC, priority 2016, published 2019).

Tests used:
Format in all cases: in vivo
[1] = tested on: Rhyncosporium secalis (RHYNSE); test: Field assessment of barley leaf scald, Trial 1 (EC formulation alone or with adjuvants); details: for % Control RHYNSE: based on AUDPC, winter barley, field, EC
Procedure: Field assessment of Rhyncosporium secalis (RHYNSE) in barley:
Trial 1: A fungicidal treatment containing Compound I was assessed against barley scald (RHYNSE) in two separate field trials. In the first trial, a fungicidal treatment containing an EC formulation of compound I by itself and in combination with two separate adjuvants was sprayed on barley plants at rates of 50, 100 and 150 grams active ingredient per hectare (g ai/ha). Fungicidal treatments were applied at B47-51 (curative, 3% infection on leaf 2) growth stage of winter barley (HORVW, Lomerit variety) under natural infection of RHYNSE. The treatment was part of an experimental trial designed as a randomized complete block with four replications and a plot of approximately 2×3 m. Compound I was applied at water volume of 200 L/ha, using a backpack precision plot sprayer (BICYCAIR, Flat Fan Air Assisted Nozle) and pressurized at 220 kPa.
(§1) Disease severity was recorded as a percentage of visual diseased foliage on whole plot. Barley leaf scald infection was assessed several times during the growing season with a final assessment 39 days after application of compound I. The disease infection was recorded following EPPO PP1/26 guideline prescriptions. Area under the disease progress curve (AUDPC) was calculated for each plot using the sets of recorded severity data. Relative AUDPC (% control based on AUDPC) was calculated as percent of the nontreated control.
(§2) In each case of the following Tables, the rating scale of percent control based on AUDPC is as follows: […]

[2] = tested on: Rhyncosporium secalis (RHYNSE); test: Field assessment of barley leaf scald, Trial 2 (EC and SC formulations); details: based on AUDPC, winter barley
Text: (§3) Trial 2: Fungicidal treatments of Compound I were applied using two separate adjuvant systems. In the first system, an EC formulation of compound I was tank mixed with Agnique BP-420 (50%) at an active:adjuvant ratio of 1:2. The second adjuvant system was an SC formulation of Compound I tank mixed with Agnique BP-420 EW (38.5%) at an active:adjuvant ratio of 1:2 and Agnique FOH TDA-9 (30% w/w) applied at 0.33% V/V. Both the EC and SC formulation was sprayed on barley plants at rates of 25, 50, 75, 100, 150, 200 and 250 grams active ingredient per hectare (g ai/ha). Fungicidal treatments were applied at B39 (early curative, 1% infection on leaf 1) growth stage of winter barley (HORVW, Maris Otter variety) under natural infection of RHYNSE. The treatment was part of an experimental trial designed as a randomized complete block with four replications.
as §1, with “scald” for “scald infection was assessed several times during the growing season with a final assessment 39 days after application of compound I. The disease”
as §2

[3] = tested on: Puccinia hordei (PUCCHD); test: Field assessment of barley rust; details: for Percent Control PUCCHD: based on AUDPC, winter barley, field
Procedure: Field Assessment of Puccinia hordei (PUCCHD) in Barley:
as §3, with “A fungicidal treatment containing Compound I was assessed against barley rust (PUCCHD) in two separate field trials. In each trial, fungicidal” for “Trial 2: Fungicidal”, “Otter and Lomerit” for “Otter”, “PUCCHD.” for “RHYNSE.”
as §1, with “rust” for “leaf scald infection was assessed several times during the growing season with a final assessment 39 days after application of compound I. The disease”
as §2

[4] = 25 g ai/ha, EC + Agnique BP-420
[5] = 25 g ai/ha, SC + Agnique BP-420 EW and Agnique FOH TDA-9
[6] = 50 g ai/ha, EC + Agnique BP-420
[7] = 75 g ai/ha, EC + Agnique BP-420
[8] = 75 g ai/ha, SC + Agnique BP-420 EW and Agnique FOH TDA-9
[9] = 100 g ai/ha, EC + Agnique BP-420
[10] = 100 g ai/ha, SC + Agnique BP-420 EW and Agnique FOH TDA-9
[11] = 150 g ai/ha, EC + Agnique BP-420
[12] = 150 g ai/ha, SC + Agnique BP-420 EW and Agnique FOH TDA-9
[13] = 200 g ai/ha, EC + Agnique BP-420
[14] = 200 g ai/ha, SC + Agnique BP-420 EW and Agnique FOH TDA-9
[15] = 250 g ai/ha, EC + Agnique BP-420
[16] = 250 g ai/ha, SC + Agnique BP-420 EW and Agnique FOH TDA-9

N#Cc1ccc(Oc2ccc(C(F)(F)C(O)(Cn3ncnc3S)c3ccc(F)cc3F)nc2)cc1 (stereo not drawn) [Compound I, 4-((6-(2-(2,4-difluorophenyl)-1,1-difluoro-2-hydroxy-3-(5-mercapto-1H-1,2,4-triazol-1-yl)propyl)pyridin-3-yl)oxy)benzonitrile]
% Control RHYNSE ([1]; 50 g ai/ha, Agnique BP-420 (50% w/w at 0.15% v/v)): C (26-50)
% Control RHYNSE ([1]; 50 g ai/ha, Agnique BP-420 (50% w/w at 0.3% v/v)): B (51-74)
% Control RHYNSE ([1]; 50 g ai/ha, Agnique SBO-10 (0.15% v/v)): C (26-50)
% Control RHYNSE ([1]; 50 g ai/ha, adjuvant None): C (26-50)
% Control RHYNSE ([1]; 100 g ai/ha, Agnique BP-420 (50% w/w at 0.15% v/v)): B (51-74)
% Control RHYNSE ([1]; 100 g ai/ha, Agnique BP-420 (50% w/w at 0.3% v/v)): B (51-74)
% Control RHYNSE ([1]; 100 g ai/ha, Agnique SBO-10 (0.15% v/v)): B (51-74)
% Control RHYNSE ([1]; 100 g ai/ha, adjuvant None): C (26-50)
% Control RHYNSE ([1]; 150 g ai/ha, Agnique BP-420 (50% w/w at 0.15% v/v)): B (51-74)
% Control RHYNSE ([1]; 150 g ai/ha, Agnique BP-420 (50% w/w at 0.3% v/v)): B (51-74)
% Control RHYNSE ([1]; 150 g ai/ha, Agnique SBO-10 (0.15% v/v)): B (51-74)
% Control RHYNSE ([1]; 150 g ai/ha, adjuvant None): C (26-50)
fungicidal effect on Rhyncosporium secalis ([1]; leaf scald of barley, general statement): significant fungicidal effect
Percent Control RHYNSE [2, 4]: C (26-50)
Percent Control RHYNSE [2, 5]: C (26-50)
Percent Control RHYNSE [2, 6]: C (26-50)
Percent Control RHYNSE ([2]; 50 g ai/ha, SC + Agnique BP-420 EW and Agnique FOH TDA-9): C (26-50)
Percent Control RHYNSE [2, 7]: B (51-74)
Percent Control RHYNSE [2, 8]: C (26-50)
Percent Control RHYNSE [2, 9]: B (51-74)
Percent Control RHYNSE [2, 10]: C (26-50)
Percent Control RHYNSE [2, 11]: B (51-74)
Percent Control RHYNSE [2, 12]: B (51-74)
Percent Control RHYNSE [2, 13]: B (51-74)
Percent Control RHYNSE [2, 14]: B (51-74)
Percent Control RHYNSE [2, 15]: B (51-74)
Percent Control RHYNSE [2, 16]: B (51-74)
fungicidal effect on Puccinia Hordei ([3]; barley rust, general statement): significant fungicidal effect
Percent Control PUCCHD [3, 4]: B (51-74)
Percent Control PUCCHD [3, 5]: B (51-74)
Percent Control PUCCHD [3, 6]: B (51-74)
Percent Control PUCCHD ([3]; 50 g ai/ha, Sc (SC + Agnique BP-420 EW and Agnique FOH TDA-9)): B (51-74)
Percent Control PUCCHD [3, 7]: A (75-100)
Percent Control PUCCHD [3, 8]: B (51-74)
Percent Control PUCCHD [3, 9]: A (75-100)
Percent Control PUCCHD [3, 10]: A (75-100)
Percent Control PUCCHD [3, 11]: A (75-100)
Percent Control PUCCHD [3, 12]: A (75-100)
Percent Control PUCCHD [3, 13]: A (75-100)
Percent Control PUCCHD [3, 14]: A (75-100)
Percent Control PUCCHD [3, 15]: A (75-100)
Percent Control PUCCHD [3, 16]: A (75-100)
